Test results reported in US20150143553A1, “Methods And Compositions Comprising A Drosophila Model Of Amyotrophic Lateral Sclerosis” (priority 2013, published 2015).

Columns and labels:
[1] = test system: D42>TDPWT larvae; assay: Global metabolomic profiling, D42>TDPWT larvae; assay type: in vivo, Drosophila; conditions: 1 μM pioglitazone
Method: To gain insight into the mechanism by which pioglitazone is neuroprotective, a global metabolomic approach was taken using larvae expressing TDP-43 in motor neurons (D42>TDP-43) and D42>w1118 controls raised on either 1 μM pioglitazone, DMSO or regular food. To determine specific metabolites that were restored by pioglitazone in the context of TDPWT, the metabolic profiles of D42>TDPWT larvae raised on drug food versus DMSO were compared and 111 alterations were found among a total of 572 metabolites detected in the samples. […] This led to the identification of 28 metabolites altered by both pioglitazone and TDPWT (Table 2). […] In addition, 6 metabolites further altered by pioglitazone in the same direction as that of TDP-43 were found, consistent with a potential worsening effect. Among the 28 metabolites some were also affected by DMSO alone as determined by comparing the metabolic profiles of D42>TDPWT larvae raised on DMSO and D42>TDPWT larvae raised on regular food.
D42 Gal4 virgin females were crossed with UAS TDP-43 YFP or w1118 males and raised on regular food (RF), DMSO or 1 μM Pioglitazone (PGZ) containing food. 50-60 third instar larvae (approximately 50-60 mg) were collected and flash frozen in liquid nitrogen. Samples were made in 5 replicates. Global metabolomic study was performed following standard protocols by Metabolon, INC (Durham, N.C.). Briefly, protein samples were divided into four fractions: one for analysis by UPLC-MS/MS with positive ion mode electrospray ionization, one for analysis by UPLC-MS/MS with negative ion mode electrospray ionization, one for analysis by GC-MS, and one sample was reserved for backup. Raw data was extracted, peak-identified and QC processed using Metabolon's hardware and software. Compounds were identified by comparison to library entries of purified standards or recurrent unknown entities. Peaks were quantified using area-under-the-curve. Following normalization to Bradford protein concentration data were log transformed. Missing values for a given metabolite were imputed with the minimum observed value for each compound based on the assumption that they were below the limit of instrument detection sensitivity. For studies spanning multiple days, a data normalization step was performed to correct variation resulting from instrument inter-day tuning differences.
Student's T test was used for statistical analysis of larval turning experiments and Log-rank test was used for survival analyses. For metabolomics standard statistical analyses were performed in ArrayStudio on log transformed data. For those analyses not standard in ArrayStudio, the programs R (cran.r-project.org/) or JMP (jmp.com) were used. Welch's two-sample t-test and matched pairs t-test were used to compute p-values. False discovery rates were calculated as described (69).

[2] = test system: ALS patients; conditions: ALS patients administered pioglitazone; cited from earlier work
[3] = test system: wild-type control larvae (D42>w1118); assay: Larval turning assay, wild-type control larvae; assay type: in vivo, Drosophila; conditions: 1 μM pioglitazone
Method: (§1) Next an ideal drug concentration was determined using a more sensitive and disease relevant assay that measures neuromuscular coordination, namely larval turning (see Materials and Methods for details). Larvae expressing TDPWT or TDPG298S in motor neurons (D42>TDP-43) were raised on food containing either 1, 5, 10, 25 μM pioglitazone or DMSO and assayed for their locomotor ability using larval turning assays.
(§2) Assays were performed as described herein (33, 35). Briefly, wandering third instar larvae were placed on room temperature grape juice plates, allowed to acclimate then gently turned ventral side up. The time required for larvae to flip back to dorsal side up and start moving forward was noted as the larval turning time. At least 30 larvae per genotype and condition were tested.

[4] = test system: Drosophila larvae expressing wild-type TDP-43 in motor neurons; assay: Drug screen: rescue of lethality caused by wild-type TDP-43 expression in motor neurons (D42 Gal4); assay type: in vivo; conditions: for Av. % rescue (number of rescued adults/total number of pupae × 100%): TDP^WT
[5] = test system: Drosophila larvae expressing G298S TDP-43 in motor neurons; assay: Drug screen: rescue of lethality caused by G298S TDP-43 expression in motor neurons (D42 Gal4); assay type: in vivo; conditions: TDP^G298S
From the text: […] Larvae expressing TDP-43 (wild type or mutant, as shown) are raised on drug containing food.
[…] Larvae expressing TDP-43 (wt or mutant) were raised on drug containing food.
Using a Drosophila model of ALS based on TDP-43 that recapitulates several aspects of the disease pathophysiology (33, 35), a drug screen aimed at identifying FDA approved compounds with neuroprotective potential in vivo were designed (FIG. 37A). […] This phenotype was used to screen for drug candidates with therapeutic potential as determined by their ability to rescue pupal lethality and produce viable adults with extended wings (FIG. 37A).
Larvae expressing TDP-43 in motor neurons (D42>TDP-43) were raised on fly food containing different amounts of drug (1, 10 and 25 μM, see Materials and Methods for details) or Dimethyl Sulfoxide (DMSO) as vehicle control (FIG. 37B, C).
UAS TDP-43 males were crossed with D42-Gal4 female virgins on fly food containing either DMSO or pioglitazone. For DMSO controls, the same volume of DMSO as the corresponding drug concentration was added. Bromophenol blue was added to a final concentration of approximately 0.02% to ensure homogeneity. Crosses were made on drug food with 3 female virgins and 2 males in each vial, and were maintained at 25° C. unless noted. The parents were discarded after 5-7 days then the vials were screened for adult progeny with straight wings from day 14 to day 25. All adults were screened for TDP-43 expression by visualizing the YFP tag. Total number of pupae was counted on day 25. Percent survival was calculated using the formula (total number of straight-winged adults/total number of pupae)×100. All experiments were performed in triplicate.

[6] = test system: Larvae expressing TDPG298S in motor neurons; assay: Larval turning assay, D42>TDPG298S; assay type: in vivo, Drosophila; conditions: 1 μM pioglitazone in food; DMSO 25.8+/−1.8 sec
Method: (§3) Assays were performed as disclosed herein. Briefly, wandering third instar larvae were placed on a grape juice plate at room temperature. After becoming acclimated, crawling larvae were gently turned onto their backs (ventral side up) and monitored until they were able to turn back (dorsal side up) and continue their forward movement. The amount of time that it took each larva to complete this task was recorded. Twenty to thirty larvae were used per genotype. Student's t-test was performed to assess statistical significance.
as §1, §2

[7] = test system: Larvae expressing TDPWT in motor neurons; assay: Larval turning assay, D42>TDPWT; assay type: in vivo, Drosophila; conditions: 1 μM pioglitazone in food; DMSO 14.5+/−1 sec
Method: as §3, §1, §2

CCc1ccc(CCOc2ccc(CC3SC(=O)NC3=O)cc2)nc1 (stereo not drawn) [Pioglitazone]
metabolites altered by both pioglitazone and TDPWT [1]: 28
metabolites altered in opposite direction compared to TDPWT (restoration) [1]: 14
metabolites further altered in the same direction as TDP-43 (worsening) [1]: 6
metabolites similarly affected by pioglitazone and TDPWT (no further change) [1]: 8
saccharopine level, pioglitazone compared to DMSO [1]: 0.67
N-acetylglutamine level, pioglitazone versus DMSO ([1]; Pvalue<0.05): 0.74
4-hydroxybutyrate (GHB) level, pioglitazone compared to DMSO ([1]; Pvalue=0.04): 0.41
metabolite alterations, drug food versus DMSO ([1]; among a total of 572 metabolites): 111
pyruvate level, pioglitazone compared to DMSO ([1]; not significant): 0.68
hazard ratio for mortality [2]: increase in hazard ratio for mortality
effect on larval turning time in control larvae [3]: no effect
Av. % rescue (number of rescued adults/total number of pupae × 100%) ([4]; PGZ 1 μM): 15.2%
Av. % rescue (number of rescued adults/total number of pupae × 100%) ([4]; PGZ 10 μM): 1.7%
Av. % rescue (number of rescued adults/total number of pupae × 100%) ([4]; PGZ 25 μM): 0.8%
Preliminary rescue result: adults with normal wings ([4]; transgene WT2, 50 μM in fly food): 1 Adult Normal Wings Adults
Rescue Effect ([4]; transgene wt, primary screening (50 μM), out of 15-20 pupae): 1 adults
Av. % rescue (number of rescued adults/total number of pupae × 100%) ([5]; PGZ 1 μM): 19.4%
Av. % rescue (number of rescued adults/total number of pupae × 100%) ([5]; PGZ 10 μM): 15.0%
Av. % rescue (number of rescued adults/total number of pupae × 100%) ([5]; PGZ 25 μM): 9.7%
larval turning time [6]: 17.3 ± 1.1 s
larval turning time [7]: 9.2 ± 0.7 s
